Values after ≈ are worked out from the molar mass of the structure shown. Marks after values point to notes of the source that are not given here.
How the values were obtained:
[1] = test system: APEC O109; experiment: MIC and MBC determination in M63 media; format: cell-based; conditions: Escherichia coli
[2] = test system: APEC O1-63; experiment: MIC and MBC determination in M63 media; format: cell-based; conditions: Escherichia coli; APEC O1-63, M63 media
[3] = test system: APEC O2; experiment: MIC and MBC determination in M63 media; format: cell-based; conditions: Escherichia coli
[4] = test system: biofilm embedded APEC O78; experiment: MBEC High-throughput (HTP) assay; format: cell-based, Escherichia coli
Protocol: The effect of cidal SMs against biofilm embedded APEC was determined using MBEC High-throughput (HTP) assay (Innovotech Inc., AB, Canada)[22]. Briefly, 150 μL of 0.05 OD600 adjusted APEC O78 culture was aliquoted into each well of the MBEC device containing polystyrene pegs and incubated at 37 °C for 36 h in LB media under stationary condition. […] The plate was incubated in the dark for 18 h at 37 °C with rotation at 110 rpm. The DMSO (1%) and […] media were used as positive and negative controls, respectively. Following incubation, MIC of SMs in challenged plate was recorded. The SMs exposed pegs were then transferred to a new 96-well plate containing PBS and sonicated for 30 mins (Aquasonic ultrasonic cleaner, VWR) to disrupt the biofilm. The sonicated suspensions were ten-fold serially diluted and plated on LB agar plate. Biofilm embedded APEC bacteria were enumerated and minimum biofilm eradication concentration (MBEC) of SMs were determined as described previously. Two independent experiments were conducted.

[5] = test system: APEC O78; experiment: Loss of 260/280 nm absorbing materials assay; format: cell-based, Escherichia coli; conditions: 2X MBC, 1 h; for Absorbance 280 nm of treated supernatant: DMSO 2.58; for Absorbance 280 nm of treated supernatant / Absorbance 260 nm of treated supernatant: superscript a P < 0.05 vs DMSO; for Absorbance 260 nm of treated supernatant: DMSO 3.77
Protocol: Membrane permeability assays (crystal violet (CV) uptake and loss of 260/280 nm absorbing materials) were conducted as described previously. […] CV uptake was measured using the formula: (OD DMSO − OD SM/OD DMSO × 100). Two independent experiments in duplicates were conducted.

[6] = test system: intracellular APEC O1 in THP-1 cells; experiment: Intracellular survival assay; format: cell-based, Escherichia coli; conditions: for minimal effective concentration: Escherichia coli, O1, THP-1, 6 h treatment, read-out: SMs intracellular APEC clearance concentration; for concentration at which the SM significantly (P < 0.01) reduced intracellular APEC (superscript of t-statistic): O1, THP-1, 6 h
Protocol: (§1) Intracellular survival assay was conducted as described previously[28],[29] to determine the effect of cidal SMs on APEC survival in phagocytic (HD11, THP-1) and non-phagocytic (Caco-2) cells. Briefly, mid-logarithmic phase grown APEC O78, O1, and O2 were washed and adjusted to 1 × 10^7 CFU/mL in cell culture incomplete media (no FBS and antibiotics). One-hundred microlitres adjusted APEC suspension was added at multiplicity of infection (MOI) 10 to wells of 96-well cell culture plate containing cultured macrophage (HD11, THP-1) and epithelial cells (Caco-2) and incubated for 1 h and 3 h, respectively. […] The cells were then lysed with 100 µL of 0.1% Triton X-100 for 5 mins, serially diluted, and plated on LB agar plate to enumerate viable bacteria. The intracellular bacteria in SMs treated wells were compared with DMSO (1%) treated wells. Two independent experiments in duplicate wells for each concentration of SMs were conducted.

[7] = test system: intracellular APEC O1 in HD11 cells; experiment: Intracellular survival assay; format: cell-based, Escherichia coli; conditions: for minimal effective concentration: Escherichia coli, O1, HD11, 6 h treatment, read-out: SMs intracellular APEC clearance concentration; for concentration at which the SM significantly (P < 0.01) reduced intracellular APEC (superscript of t-statistic): O1, HD11, 6 h
Protocol: as §1

[8] = test system: intracellular APEC O2 in THP-1 cells; experiment: Intracellular survival assay; format: cell-based, Escherichia coli; conditions: for minimal effective concentration: Escherichia coli, O2, THP-1, 6 h treatment, read-out: SMs intracellular APEC clearance concentration; for concentration at which the SM significantly (P < 0.01) reduced intracellular APEC (superscript of t-statistic): O2, THP-1, 6 h
Protocol: as §1

[9] = test system: intracellular APEC O78 in THP-1 cells; experiment: Intracellular survival assay; format: cell-based, Escherichia coli; conditions: for minimal effective concentration: Escherichia coli, O78, THP-1, 6 h treatment, read-out: SMs intracellular APEC clearance concentration; for intracellular APEC clearance concentration as multiple of MIC (superscript): O78, THP-1; for concentration at which the SM significantly (P < 0.01) reduced intracellular APEC (superscript of t-statistic): O78, THP-1, 6 h
Protocol: as §1

[10] = test system: intracellular APEC O2 in HD11 cells; experiment: Intracellular survival assay; format: cell-based, Escherichia coli; conditions: for minimal effective concentration: Escherichia coli, O2, HD11, 6 h treatment, read-out: SMs intracellular APEC clearance concentration; for intracellular APEC clearance concentration as multiple of MIC (superscript): O2, HD11; for concentration at which the SM significantly (P < 0.01) reduced intracellular APEC (superscript of t-statistic): O2, HD11, 6 h
Protocol: as §1

[11] = test system: intracellular APEC O2 in Caco-2 cells; experiment: Intracellular survival assay; format: cell-based, Escherichia coli; conditions: for minimal effective concentration: Escherichia coli, O2, Caco-2, 6 h treatment, read-out: SMs intracellular APEC clearance concentration; for concentration at which the SM significantly (P < 0.01) reduced intracellular APEC (superscript of t-statistic): O2, Caco-2, 6 h
Protocol: as §1

[12] = test system: intracellular APEC O78 in HD11 cells; experiment: Intracellular survival assay; format: cell-based, Escherichia coli; conditions: for minimal effective concentration: Escherichia coli, O78, HD11, 6 h treatment, read-out: SMs intracellular APEC clearance concentration; for intracellular APEC clearance concentration as multiple of MIC (superscript): O78, HD11; for concentration at which the SM significantly (P < 0.01) reduced intracellular APEC (superscript of t-statistic): O78, HD11, 6 h
Protocol: as §1

[13] = test system: APEC O1; experiment: MIC and MBC determination in M63 media; format: cell-based; conditions: Escherichia coli
[14] = test system: intracellular APEC O78, O2, and O1 in infected Caco-2, HD11, and THP1 cells; experiment: Intracellular survival assay, statements over all serotypes and cells; format: cell-based, Escherichia coli; conditions: for minimal effective concentration: Escherichia coli, 6 h, O78, O2 and O1, Caco-2, HD11, THP-1, read-out: concentration clearing intracellular APEC
Protocol: as §1

[15] = test system: APEC O115; experiment: MIC and MBC determination in M63 media; format: cell-based; conditions: Escherichia coli
[16] = test system: APEC O78-53; experiment: MIC and MBC determination in M63 media; format: cell-based; conditions: Escherichia coli; APEC O78-53, M63 media
Protocol: One microlitre SM of each concentration was transferred to each well of a 96-well plate containing 100 µL of the 0.05 OD600 adjusted APEC O78 culture in M63 media. Growth was monitored in Sunrise - Absorbance microplate reader as described above. MIC was indicated by lowest concentration of SM with non-elevated OD600 measurement. MBC was determined by absence of APEC growth on LB agar plate following subculture. […] Two independent experiments were conducted.

[17] = test system: APEC O15; experiment: MIC and MBC determination in M63 media; format: cell-based; conditions: Escherichia coli

Structure (SMILES)	MBC [1] [µM]	MIC [1] [µM]	MBC [2] [µM]	MIC [2] [µM]	MBC [3] [µM]	MIC [3] [µM]	280 nm absorbing materials in supernatant compared with DMSO [5]	Absorbance 280 nm of treated supernatant [5]	Absorbance 260 nm of treated supernatant [5]	minimal effective concentration [6] [µM]	concentration at which the SM significantly (P < 0.01) reduced intracellular APEC (superscript of t-statistic) [6]	minimal effective concentration [7] [µM]	concentration at which the SM significantly (P < 0.01) reduced intracellular APEC (superscript of t-statistic) [7]	minimal effective concentration [8] [µM]	concentration at which the SM significantly (P < 0.01) reduced intracellular APEC (superscript of t-statistic) [8]	minimal effective concentration [9] [µM]	intracellular APEC clearance concentration as multiple of MIC (superscript) [9]	concentration at which the SM significantly (P < 0.01) reduced intracellular APEC (superscript of t-statistic) [9]	minimal effective concentration [10] [µM]	intracellular APEC clearance concentration as multiple of MIC (superscript) [10]	other results
COc1cc(CNCCc2ccc3ccccc3c2)ccc1OCC(O)CN1CCCC1 (centres unmarked) [SM2]	200 (≈ 86.9 µg/mL)	100 (≈ 43.5 µg/mL)	250 (≈ 109 µg/mL)	200 (≈ 86.9 µg/mL)	250 (≈ 109 µg/mL)	200 (≈ 86.9 µg/mL)	significantly (P < 0.05, Student’s t-test) increased	2.86^a	3.71	200	a (0.5X MIC)	200	a (0.5X MIC)	100	b (1X MIC)	100	a (1X MIC)	a (0.5X MIC)	200	b (2X MIC)	MBEC as multiple of MIC (superscript) ([4]; 18 h challenge in M63 media): b (1X MIC); intracellular APEC clearance concentration as multiple of MIC (superscript) ([6]; O1, THP-1): b (2X MIC); concentration at which the SM significantly (P < 0.01) reduced intracellular APEC (superscript of t-statistic) [10]: a (0.5X MIC); minimal effective concentration [11]: > 200 µM; concentration at which the SM significantly (P < 0.01) reduced intracellular APEC (superscript of t-statistic) [11]: b (1X MIC); minimal effective concentration [12]: 100 µM; intracellular APEC clearance concentration as multiple of MIC (superscript) [12]: a (1X MIC); concentration at which the SM significantly (P < 0.01) reduced intracellular APEC (superscript of t-statistic) [12]: a (0.5X MIC); MBC [13]: 250 µM (≈ 109 µg/mL); MIC [13]: 200 µM (≈ 86.9 µg/mL); minimal effective concentration [14]: ≥ 100 µM; MBC [15]: 200 µM (≈ 86.9 µg/mL); MIC [15]: 200 µM (≈ 86.9 µg/mL); MBC [16]: 200 µM (≈ 86.9 µg/mL); MIC [16]: 100 µM (≈ 43.5 µg/mL); MBC [17]: 100 µM (≈ 43.5 µg/mL); MIC [17]: 100 µM (≈ 43.5 µg/mL)
CC(=O)OC(C(Br)C(=O)c1ccc([N+](=O)[O-])cc1)C(Cl)(Cl)Cl (centres unmarked) [SM10]	50 (≈ 21.7 µg/mL)	25 (≈ 10.8 µg/mL)	100 (≈ 43.3 µg/mL)	50 (≈ 21.7 µg/mL)	50 (≈ 21.7 µg/mL)	25 (≈ 10.8 µg/mL)	significantly (P < 0.05, Student’s t-test) increased	2.73^a	3.98^a	> 100	b (1X MIC)	> 100	b (1X MIC)	50	b (1X MIC)	100	c (4X MIC)	b (1X MIC)	100	c (4X MIC)	concentration that significantly (P < 0.01) reduced biofilm embedded APEC ([4]; no eradication): 1 X MIC; MBEC as multiple of MIC ([4]; tested 0.5X to 8X MIC): > 8 X MIC; 260 nm absorbing materials in supernatant compared with DMSO [5]: significantly (P < 0.05, Student’s t-test) increased; concentration at which the SM significantly (P < 0.01) reduced intracellular APEC (superscript of t-statistic) [10]: b (1X MIC); minimal effective concentration [11]: 100 µM; intracellular APEC clearance concentration as multiple of MIC (superscript) ([11]; O2, Caco-2): c (4X MIC); concentration at which the SM significantly (P < 0.01) reduced intracellular APEC (superscript of t-statistic) [11]: b (1X MIC); minimal effective concentration [12]: 50 µM; intracellular APEC clearance concentration as multiple of MIC (superscript) [12]: b (2X MIC); concentration at which the SM significantly (P < 0.01) reduced intracellular APEC (superscript of t-statistic) [12]: c (2XMIC); MBC [13]: 25 µM (≈ 10.8 µg/mL); MIC [13]: 25 µM (≈ 10.8 µg/mL); minimal effective concentration [14]: ≤ 100 µM; ranking in clearing intracellular APEC ([14]; all tested serotypes and cells): most effective SMs in clearing intracellular APEC serotypes in all tested cells; MBC [15]: 50 µM (≈ 21.7 µg/mL); MIC [15]: 25 µM (≈ 10.8 µg/mL); MBC [16]: 50 µM (≈ 21.7 µg/mL); MIC [16]: 25 µM (≈ 10.8 µg/mL); MBC [17]: 100 µM (≈ 43.3 µg/mL); MIC [17]: 50 µM (≈ 21.7 µg/mL)
